This passage reports GI50 and TGI results from PubChem BioAssay (NCI).

Structures are written as SMILES. Where “and” joins values, the source holds several entries; their conditions need not be identical. Equal values may be shown once.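 Cells were grown in 96-well plates and exposed to each compound for 48 hours at five concentrations; endpoints were interpolated linearly between bracketing concentrations, or set to the highest concentration if not reached. GI50 is the concentration that inhibits growth by half. TGI denotes the concentration required for complete inhibition of growth.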 Some results are limits rather than exact numbers.

Among the test systems are ACHN renal; BT-549 breast; HL-60(TB) leukemia; HOP-62 NSCLC; NCI-H23 lung; NCI-H522 lung; RPMI-8226 leukemia; SF-539 CNS; SK-MEL-5 melanoma; UACC-257 melanoma.
Holding throughout (assay): inhibition of tumour cell growth, NCI panel, 48 h

With `Nc1ncnc2c1ncn2C1SC(CO)C(O)C1O` (stereo not given), the GI50 in the test with ACHN renal is 31.8 µM; with BT-549 breast it was 12.7 µM; with HL-60(TB) leukemia it was 30.3 µM; in the test on HOP-62 NSCLC it was 24.9 µM; in the test on NCI-H23 lung, 35.1 µM; with NCI-H522 lung, 40 µM. Moreover, the GI50 is 44.1 µM with RPMI-8226 leukemia, 19.7 µM in the test on SF-539 CNS, 74.4 µM with SK-MEL-5 melanoma and greater than 100 µM with UACC-257 melanoma. In addition, the TGI with ACHN renal is greater than 100 µM; with BT-549 breast, 43.2 µM; with HL-60(TB) leukemia, 76.2 µM; in the test with HOP-62 NSCLC, 91.2 µM; in the test with NCI-H23 lung it was greater than 100 µM; in the test on NCI-H522 lung, greater than 100 µM. The TGI in the test with RPMI-8226 leukemia was greater than 100 µM; in the test on SF-539 CNS, 50.1 µM; in the test on SK-MEL-5 melanoma it was greater than 100 µM; in the test with UACC-257 melanoma it was greater than 100 µM.
With `N#CSc1c[nH]c2cccc(/C=C/C(=O)/C=C(O)/C=C/c3cccc4[nH]cc(SC#N)c34)c12`, the GI50 in the test on ACHN renal was 0.351 µM; with BT-549 breast, 0.5 µM; with HL-60(TB) leukemia, 0.437 µM; with HOP-62 NSCLC it was 1.15 µM; in the test with NCI-H23 lung, 0.426 µM; in the test on NCI-H522 lung it was 0.093 µM. Moreover, the GI50 with RPMI-8226 leukemia is 0.128 µM; in the test with SF-539 CNS it was 0.559 µM; in the test on SK-MEL-5 melanoma, 0.467 µM; in the test on UACC-257 melanoma, 0.944 µM. Further, the TGI with ACHN renal turned out to be 1.04 µM; in the test on BT-549 breast it was 1.63 µM; with HL-60(TB) leukemia, 1.75 µM; with HOP-62 NSCLC, 4.35 µM; in the test on NCI-H23 lung, 1.89 µM; with NCI-H522 lung it was 0.47 µM. Moreover, the TGI in the test with RPMI-8226 leukemia came to 0.9 µM; in the test with SF-539 CNS, 1.36 µM; with SK-MEL-5 melanoma, 0.982 µM; in the test with UACC-257 melanoma, 3.38 µM.
For `CC/C(=C\c1ccc(N(C)C)cc1)c1ccncc1`, the GI50 was 5.87 µM in the test on ACHN renal; 4.38 µM with BT-549 breast; 4.06 µM in the test with HL-60(TB) leukemia; 4.33 µM with HOP-62 NSCLC; 4.96 µM with NCI-H23 lung; 5.05 µM with NCI-H522 lung. Besides, the GI50 in the test with RPMI-8226 leukemia was 5.13 µM; in the test on SF-539 CNS, 7.35 µM; in the test with SK-MEL-5 melanoma, 3.43 µM; in the test on UACC-257 melanoma, 11.6 µM. Besides, the TGI with ACHN renal is greater than 100 µM; in the test with BT-549 breast, 23.5 µM; in the test on HL-60(TB) leukemia, 29.3 µM; in the test on HOP-62 NSCLC it was 33.7 µM; in the test on NCI-H23 lung, greater than 100 µM; with NCI-H522 lung, greater than 100 µM. The TGI in the test on RPMI-8226 leukemia is 55.2 µM; in the test on SF-539 CNS, 74.6 µM; in the test with SK-MEL-5 melanoma, 16.4 µM; with UACC-257 melanoma, greater than 100 µM.
In the case of `Nc1nc(N)c2nc(CNc3ccc(C(=O)NC(CCC(=O)O)C(=O)O)cc3)cnc2n1` (stereo not given), the GI50 was less than 0.01 µM in the test with ACHN renal; 0.399 µM and 0.213 µM in the test with BT-549 breast; less than 0.01 µM in the test with HL-60(TB) leukemia; 0.0408 µM and < 0.01 µM in the test on HOP-62 NSCLC; 0.0604 µM and 0.0213 µM with NCI-H23 lung; 0.0446 µM and 0.0815 µM in the test with NCI-H522 lung. Moreover, the GI50 in the test on RPMI-8226 leukemia is 0.0519 µM and 0.0313 µM; in the test with SF-539 CNS, 0.0204 µM and < 0.01 µM; in the test on SK-MEL-5 melanoma, 0.0585 µM and 0.0309 µM; in the test on UACC-257 melanoma, 0.0942 µM and 0.0723 µM. The TGI with ACHN renal, in the test with BT-549 breast, with HL-60(TB) leukemia, with HOP-62 NSCLC, in the test with NCI-H23 lung and with NCI-H522 lung was greater than 100 µM in each case. Further, the TGI in the test with RPMI-8226 leukemia, in the test with SF-539 CNS, in the test on SK-MEL-5 melanoma and in the test with UACC-257 melanoma was greater than 100 µM each time.
In the case of `N/C(=N\O)c1cn(C2OC(CO)C(O)C2O)c2ncnc(N)c12` (stereo not given), the GI50 in the test on ACHN renal is 0.0764 µM; with BT-549 breast it was 0.311 µM; with HL-60(TB) leukemia, 0.117 µM; with HOP-62 NSCLC, 0.468 µM; in the test with NCI-H23 lung it was 0.229 µM; with NCI-H522 lung, 0.157 µM. In addition, the GI50 in the test with RPMI-8226 leukemia is 0.162 µM; in the test with SF-539 CNS, 0.255 µM; with SK-MEL-5 melanoma it was 0.183 µM; in the test on UACC-257 melanoma, 0.177 µM. In addition, the TGI in the test with ACHN renal is greater than 35.9 µM; with BT-549 breast, 17.7 µM; with HL-60(TB) leukemia, 0.858 µM; in the test on HOP-62 NSCLC, greater than 68.7 µM; in the test on NCI-H23 lung, 5.18 µM; in the test on NCI-H522 lung it was 0.401 µM. Moreover, the TGI in the test with RPMI-8226 leukemia is 0.625 µM; with SF-539 CNS, 3.51 µM; in the test with SK-MEL-5 melanoma, 0.356 µM; with UACC-257 melanoma it was 0.705 µM.
For `Nc1nc(-c2ccccn2)c(-c2ccc3ncccc3n2)s1`, the GI50 with ACHN renal, with BT-549 breast, in the test with HL-60(TB) leukemia, in the test with HOP-62 NSCLC, in the test with NCI-H23 lung and with NCI-H522 lung was greater than 25 µM each time. In addition, the GI50 in the test with RPMI-8226 leukemia, in the test on SF-539 CNS, in the test with SK-MEL-5 melanoma and in the test with UACC-257 melanoma was greater than 25 µM each time. The TGI in the test with ACHN renal, in the test with BT-549 breast, in the test on HL-60(TB) leukemia, with HOP-62 NSCLC, with NCI-H23 lung and in the test on NCI-H522 lung was greater than 25 µM each time. The TGI in the test on RPMI-8226 leukemia, with SF-539 CNS, in the test on SK-MEL-5 melanoma and in the test on UACC-257 melanoma was greater than 25 µM in each case.
Turning to `COc1cc2nc(NC3CCC3)nc(NC3CCN(C(C)C)CC3)c2cc1OC`, the GI50 in the test with ACHN renal was 2.7 µM; with BT-549 breast, 1.71 µM; in the test with HL-60(TB) leukemia it was 2.06 µM; with HOP-62 NSCLC, 2.6 µM; in the test on NCI-H23 lung it was 4.61 µM; with NCI-H522 lung, 1.96 µM. The GI50 is 1.71 µM with RPMI-8226 leukemia, 1.81 µM in the test on SF-539 CNS, 1.75 µM in the test with SK-MEL-5 melanoma and 1.89 µM with UACC-257 melanoma. Also, the TGI is 7.4 µM in the test with ACHN renal; 3.7 µM in the test on BT-549 breast; 4.05 µM in the test on HL-60(TB) leukemia; 11 µM in the test with HOP-62 NSCLC; 17.7 µM in the test with NCI-H23 lung; 4.52 µM with NCI-H522 lung. Moreover, the TGI is 4.06 µM in the test with RPMI-8226 leukemia, 3.36 µM in the test with SF-539 CNS, 3.15 µM with SK-MEL-5 melanoma and 3.78 µM in the test on UACC-257 melanoma.
`CC(=O)Nc1ccc(S(=O)(=O)N2C(=O)CCC2C(=O)Nc2ccccc2)cc1` (stereo not given): the GI50 was 0.241 µM in the test with ACHN renal; 1.57 µM in the test with BT-549 breast; 1.64 µM in the test with HL-60(TB) leukemia; 0.879 µM with HOP-62 NSCLC; 2.23 µM in the test with NCI-H23 lung; 0.491 µM with NCI-H522 lung. Moreover, the GI50 is 0.83 µM in the test with RPMI-8226 leukemia, 0.542 µM in the test on SF-539 CNS, 0.367 µM with SK-MEL-5 melanoma and 1.34 µM with UACC-257 melanoma. Also, the TGI in the test with ACHN renal stood at 14.3 µM; with BT-549 breast, 14.6 µM; in the test on HL-60(TB) leukemia, 15.2 µM; with HOP-62 NSCLC it was 13.4 µM; in the test on NCI-H23 lung, 18.6 µM; in the test with NCI-H522 lung it was 6.27 µM. Moreover, the TGI came out at 15 µM with RPMI-8226 leukemia, 4.4 µM in the test on SF-539 CNS, 5.31 µM in the test on SK-MEL-5 melanoma and 17.2 µM with UACC-257 melanoma.
